Results from patent publication US11241438B2, “Formulations of an AXL/MER inhibitor” (Incyte Corporation, priority 2018, dated 2022).
Structures can show the parent of a compound that is named as a salt. Where two headings read alike, the source gives them in different places.

Tests used:
phosphor-Axl [1] = target: T1, phosphor-Axl (Homo sapiens (Human), UniProt P30530); assay: TAM enzymatic assay (HTRF), Axl; assay type: biochemical
Protocol: Axl Autophosphorylation Assay
Autophosphorylation of Axl was carried out by incubating the recombinant Axl protein (Life Technologies, PV4275) in buffer containing 50 mM Tris, pH7.5, 0.2 mg/ml Axl, 5 mM ATP, 20 mM MgCl2 and 2 mM DTT at room temperature for 1 hour.
(§1) The kinase assay buffer contained 50 mM HEPES, pH7.5, 10 mM MgCl2, 1 mM EGTA, 0.01% NP-40 and 2 mM DTT. 0.1 ul test compounds dissolved in DMSO were transferred from compound plates to white 384-well assay plates (Greiner […] plates). The final concentration of DMSO was 1.25%. Enzyme solutions of 5.1 nM phosphor-Axl, or 0.0625 nM c-Mer (Carna Biosciences, 08-108), or 0.366 nM Tyro3 (Life Technologies, PR7480A) were prepared in assay buffer. A 1 mM stock solution of peptide substrate Biotin-[…]-amide SEQ ID NO: 1 (Quality Controlled Biochemicals, MA) dissolved in DMSO was diluted to 1 uM in assay buffer containing 2000 uM ATP. 4 ul enzyme solution (or assay buffer for the enzyme blank) was added to the appropriate wells in each plate, and then 4 ul/well substrate solution was added to initiate the reaction. […] The plate was incubated for 1 h at room temperature, and HTRF (homogenous time resolved fluorescence) signal was measured on a PHERAstar FS plate reader (BMG labtech). Percentage of inhibition was calculated for each concentration and IC50 value was generated from curve fitting with GraphPad Prism software.

[2] = Solubility study in aqueous surfactant solutions; assay type: physicochemical; conditions: thermodynamic from solid, 37° C., after 60 minutes stirring, theoretical maximum 0.20 mg/ml, read-out: Concentration (solubility)
Protocol: The solubility of Compound I maleate was determined in aqueous solution in the presence of several surfactants at 37° C. The surfactants included sodium lauryl sulfate (SLS), poloxamer 188, and poloxamer 407 at a concentration of 0.2% (w/v) in water; a vessel without surfactant was included as a control. The experiment was performed in a Distek 2100 dissolution bath using 500 ml of media stirred at 100 RPM (USP type II dissolution apparatus). 100 mg of drug substance (free base equivalent) was added to the media to give a theoretical maximum concentration of 0.20 mg/ml. 5 ml samples were taken and filtered with a 0.45 micron GHP filter prior to analysis by HPLC. Listed below are the observed concentrations for the samples after 60 minutes of stirring time.

c-Mer [3] = target: T2, c-Mer (Homo sapiens (Human), UniProt Q12866); assay: TAM enzymatic assay (HTRF), Mer; assay type: biochemical
T2 sequence (Q12866 21-999): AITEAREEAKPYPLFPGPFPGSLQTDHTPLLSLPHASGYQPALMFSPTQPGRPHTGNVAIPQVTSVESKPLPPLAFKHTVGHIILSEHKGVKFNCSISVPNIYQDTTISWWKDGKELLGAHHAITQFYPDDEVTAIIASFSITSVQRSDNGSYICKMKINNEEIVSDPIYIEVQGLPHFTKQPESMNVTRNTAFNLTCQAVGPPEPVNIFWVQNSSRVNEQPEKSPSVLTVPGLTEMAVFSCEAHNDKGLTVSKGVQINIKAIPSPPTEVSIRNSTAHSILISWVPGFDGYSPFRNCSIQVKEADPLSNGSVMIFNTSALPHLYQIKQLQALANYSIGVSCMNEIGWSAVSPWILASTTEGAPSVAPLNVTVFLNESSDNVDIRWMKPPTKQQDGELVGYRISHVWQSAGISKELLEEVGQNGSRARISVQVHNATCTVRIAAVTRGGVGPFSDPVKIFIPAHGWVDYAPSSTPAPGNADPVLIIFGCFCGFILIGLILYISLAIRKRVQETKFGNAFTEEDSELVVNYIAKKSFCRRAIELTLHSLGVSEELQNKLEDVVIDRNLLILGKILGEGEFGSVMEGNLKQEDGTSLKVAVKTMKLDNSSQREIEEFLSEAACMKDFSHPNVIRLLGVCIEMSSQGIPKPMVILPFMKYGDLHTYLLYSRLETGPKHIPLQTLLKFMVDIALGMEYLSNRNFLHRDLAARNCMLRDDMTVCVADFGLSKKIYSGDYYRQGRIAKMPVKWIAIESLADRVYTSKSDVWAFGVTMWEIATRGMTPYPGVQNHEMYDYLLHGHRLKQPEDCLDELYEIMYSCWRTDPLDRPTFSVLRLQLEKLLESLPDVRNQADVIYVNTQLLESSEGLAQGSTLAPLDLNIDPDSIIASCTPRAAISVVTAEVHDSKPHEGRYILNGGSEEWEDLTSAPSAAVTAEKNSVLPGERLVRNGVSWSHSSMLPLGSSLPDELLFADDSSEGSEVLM
Protocol: as §1, with “reaction. The plate was protected from light and incubated at room temperature for 60 min.” for “reaction.”

c-Mer [4] = target: T2, c-Mer; conditions: data disclosed in U.S. Pat. No. 9,981,975; cited from earlier work
phosphor-Axl [5] = target: T1, phosphor-Axl; conditions: data disclosed in U.S. Pat. No. 9,981,975; cited from earlier work

T1 sequence (P30530 26-894): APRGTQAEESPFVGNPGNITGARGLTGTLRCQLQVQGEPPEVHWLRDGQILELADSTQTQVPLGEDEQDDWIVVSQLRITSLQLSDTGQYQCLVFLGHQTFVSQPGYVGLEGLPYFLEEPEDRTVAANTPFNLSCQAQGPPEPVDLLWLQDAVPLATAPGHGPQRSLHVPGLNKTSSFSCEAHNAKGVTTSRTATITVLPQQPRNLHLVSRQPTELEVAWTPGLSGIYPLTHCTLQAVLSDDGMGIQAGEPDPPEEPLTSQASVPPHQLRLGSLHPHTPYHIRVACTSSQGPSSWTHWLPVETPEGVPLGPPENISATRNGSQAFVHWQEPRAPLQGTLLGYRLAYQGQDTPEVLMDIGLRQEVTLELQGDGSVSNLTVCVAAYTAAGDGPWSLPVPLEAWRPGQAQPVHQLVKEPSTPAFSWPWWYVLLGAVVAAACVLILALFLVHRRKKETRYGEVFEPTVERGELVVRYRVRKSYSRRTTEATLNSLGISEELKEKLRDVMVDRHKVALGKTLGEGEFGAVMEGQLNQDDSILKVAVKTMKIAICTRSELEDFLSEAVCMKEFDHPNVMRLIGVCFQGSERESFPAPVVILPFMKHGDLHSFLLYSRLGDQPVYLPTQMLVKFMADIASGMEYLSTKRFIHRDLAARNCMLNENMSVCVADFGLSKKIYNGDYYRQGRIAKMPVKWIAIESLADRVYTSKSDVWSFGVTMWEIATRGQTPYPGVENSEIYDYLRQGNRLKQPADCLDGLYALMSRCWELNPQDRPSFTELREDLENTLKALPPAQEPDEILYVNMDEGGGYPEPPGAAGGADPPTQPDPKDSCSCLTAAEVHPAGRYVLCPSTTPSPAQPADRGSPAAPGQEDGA

Compound	IC50 (phosphor-Axl [1])	solubility at 60 min ([2]; 0.2% (w/v) poloxamer 188 in water, aqueous with cosolvent or surfactant or cyclodextrin, 0.2% Poloxamer 188 in water)	solubility at 60 min ([2]; 0.2% (w/v) poloxamer 407 in water, aqueous with cosolvent or surfactant or cyclodextrin, 0.2% Poloxamer 407 in water)	solubility at 60 min ([2]; 0.2% (w/v) sodium lauryl sulfate in water, aqueous with cosolvent or surfactant or cyclodextrin, 0.2% SLS in water)	solubility at 60 min ([2]; water without surfactant (control), water (no surfactant))	IC50 (c-Mer [3])	IC50 (c-Mer [4])	IC50 (phosphor-Axl [5])
CC(C)C(=O)N1CCC(c2cc(-c3ccc(NC(=O)c4cn(C(C)C)c(=O)n(-c5ccccn5)c4=O)cc3)c3c(N)ncnn23)CC1.O=C(O)/C=C\C(=O)O [Compound I maleate, N-(4-(4-amino-7-(1-isobutyrylpiperidin-4-yl)pyrrolo[2,1-f][1,2,4]triazin-5-yl)phenyl)-1-isopropyl-2,4-dioxo-3-(pyridin-2-yl)-1,2,3,4-tetrahydropyrimidine-5-carboxamide maleate]	< 5 nM	18 µg/mL	9 µg/mL	> 200 µg/mL	7 µg/mL	< 5 nM		
CC(C)C(=O)N1CCC(c2cc(-c3ccc(NC(=O)c4cn(C(C)C)c(=O)n(-c5ccccn5)c4=O)cc3)c3c(N)ncnn23)CC1 [Compound I trifluoroacetic acid salt]							< 5 nM	< 5 nM
